Results from US20220008401A1, “COMPOSITIONS AND METHODS FOR TREATING PULMONARY DISEASE WITH MATRIX METALLOPROTEINASE INHIBITORS” (DARSHA LLC, priority 2019, published 2022).

Test system: neutrophils (PMN)
Test: BALF cell counts (cytospin, DifQuik), LPS-injured mice, single inhaled dose
Type: in vivo
Conditions: 1 hour following treatment
Description: Since substantial literature indicates neutrophils (PMN) are critical mediators of inflammatory damage in injured lung, we next assessed if inhaled Compound 1 attenuated PMN infiltration of LPS injured lungs. To achieve this, mice were injured with LPS and 24 h later received a single inhaled dose of Compound 1 and were sacrificed 1 hour after dosing. PMN infiltration was assessed by examining lung sections (qualitatively) and BALF (quantitatively) from Compound 1 treated and untreated mice. Quantitative examination was performed on BALF samples that were collected from each animal and subsequently subjected to cytospin centrifugation and DifQuik staining. The fraction of PMN present in each sample may be quantified by counting 300 cells of the inflammatory cell population across three different microscopic images. The obtained fraction may then be multiplied by the total cell count to estimate the number of PMNs present in the BALF.

[1] = LPS treated mice, single inhaled dose

butanamide, N-hydroxy-2-[[(4-hydroxyphenyl)sulfonyl](3-pyridinylmethyl)amino]-3-methyl, hydrochloride, (2R) [Compound 1]
total PMN counts in the BALF (LPS then 24 h later single inhaled dose, n=5/group, p=0.01 (LPS/PBS 5.3×10^6)): 1.2×10^6 neutrophils/ml
macrophage count in the BALF [1]: remained unchanged
overall cell count in BALF [1]: significant reduction
